From patent US20050074810A1, “Method for non-invasilvely determining the relative levels of two biological substances” (priority 2001, published 2005)
Where two headings read alike, the source gives them in different places.

Conditions: subdermal lactate 1.74 mM, ammonium 1.56 mM
Description: Experiments were performed in specially-designed iontophoresis diffusion cells (Laboratory Glass Apparatus, Berkeley, Calif., USA) as represented in FIG. 7.
The anodal and cathodal chambers contacted the outer surface of the skin and contained the receptor (collection) media, respectively, 80 mM Tris/TrisHCl and 25 mM Tris+34 mM Mops (both buffered to pH 7.4).
Dermatomed pig-ear skin was clamped between the two halves of the iontophoresis cell and each chamber was filled with the appropriate solution.
The sub-dermal chamber was filled with the “donor solution which was perfused continuously at 2-3 mL/hour by means of a peristaltic pump.
A current of 0.4 mA (0.5 mA/cm^2) was passed for a total of 5 hours between the Ag/AgCl electrodes which were inserted into the anodal and cathodal chambers.
Every hour, the entire anode and cathode solutions were withdrawn and the chambers were refilled with fresh buffer.

CC(O)C(=O)O (centres unmarked) [Lactate, lactate]
Deduced transport number (×100) (3 h): 0.59 ± 0.08 ×100
Extracted flux ratio (×10^3) relative to K^+ (3 h): 149 ± 3.3 ×10^3
Extracted flux ratio (×10^3) relative to Na^+ (3 h): 8.7 ± 0.1 ×10^3
K for analyte/internal standard couple, internal standard Na^+ (3 h): 0.66 ± 0.01
Deduced transport number (×100) (5 h): 0.56 ± 0.07 ×100
Extracted flux ratio (×10^3) relative to K^+ (5 h): 138 ± 15 ×10^3
Extracted flux ratio (×10^3) relative to Na^+ (5 h): 7.8 ± 1.1 ×10^3
K for analyte/internal standard couple, internal standard Na^+ (5 h): 0.60 ± 0.08
